This is an account of results in publication PMC2408923, “N-methylisatin-beta-thiosemicarbazone derivative (SCH 16) is an inhibitor of Japanese encephalitis virus infection in vitro and in vivo” (Virology Journal, 2008).

The nature of data set [1]: in vitro. The conditions noted are these: pig.
Data set [2] concerns JEV (P20778). The experiment in a line: Plaque reduction assay, JEV in PS cells. As to conditions: for IC50: Japanese encephalitis virus. Background: Plaque reduction counts the foci of infection that form in a cell layer.
For data set [3], the system named is WNV (G22886). The experiment in a line: Plaque reduction assay, WNV in PS cells. The conditions noted are these: for IC50: West Nile virus.
Data set [4] deals with Den-2 virus (P23085). The experiment in a line: Plaque reduction assay, Den-2 in BHK 21 cells. As to conditions: non-cytotoxic concentrations. It is filed as cell-based, Dengue-2 virus.
The nature of data set [5]: in vitro. The conditions noted are these: hamster.
Data set [6] concerns JEV translation. Description: In vitro translation of RNA from SCH 16 treated JEV infected PS cells.
For data set [7], the system named is JEV replication in PS cells. Description: Kinetics of antiviral activity: staggered addition of SCH 16 to JEV infected PS cells. It is filed as cell-based, Japanese Encephalitis Virus. The conditions noted are these: for Inhibition of JEV replication (viral RNA, viral antigen, virus yield): read at 48 hours; for JEV antigen by immunofluorescence: Figure 3 Panel B.

The subject of data set [8] is JEV, WNV and Den-2. The experiment in a line: Cytopathic effect (CPE) inhibition assay. As to conditions: screen against JEV, doubling dilutions beginning with CC50. It is filed as cell-based. On the technique in general: Cytopathic effects are the visible damage that an infection or toxin causes in cultured cells.
The test system of data set [9] is JEV (P20778). The experiment in a line: In vivo evaluation by peripheral (intraperitoneal) JEV challenge. Also noted: species or system Swiss albino mice. As to conditions: for Protection: mice, 50LD50 JEV intraperitoneal.
The test system of data set [10] is JEV. Description: In vivo evaluation by intracerebral JEV challenge. More on the design: species or system Swiss albino mice.
For data set [11], the system named is JEV replication in PS cells. Description: Minimum contact time: SCH 16 removed at time points from JEV infected PS cells. It is filed as cell-based, Japanese Encephalitis Virus.
[12] abbreviates: read-out: IC50, plaque reduction, JEV (molar).
[13] abbreviates: read-out: IC50, plaque reduction, WNV (molar).

The structures appear in SMILES notation. In brackets after ≈: the same amount, converted by molar mass. Read-outs that look alike come from different tables or passages of the source.

Regarding `NC(=O)c1ncn([C@@H]2O[C@H](CO)[C@@H](O)[C@H]2O)n1` [Ribavirin, reference compound], the CC50 was found to be 50 mg/L (≈ 205 µM) in data set [1] and 200 mg/L (≈ 819 µM) in [5]. Moreover, the IC50 was 3.9 mg/L in [2] (72 h, read-out: IC50, plaque reduction, JEV); 16 µM in data set [2] (setting [12]); 1.7 mg/L in [3] (read-out: IC50, plaque reduction, WNV); 7 µM in [3] (setting [13]). In addition, in data set [4], the “Antiviral activity against Den-2 plaque formation” value was “dose dependent inhibition”.

Turning to `COc1cc(-c2cnc(/N=C3\C(=O)N(CN4CCN(c5ccc([N+](=O)[O-])cc5)CC4)c4ccccc43)nc2N)cc(OC)c1OC` [SCH 16], the “In vitro translation of viral RNA into JEV proteins” value is listed as “failed to translate into JEV proteins” in data set [6] (RNA from JEV infected cells treated with SCH 16 for 4 hours) and “showed the presence of JEV proteins” in data set [6] (RNA from infected cells treated with SCH 16 at 10 hours). Further, the “Inhibition of JEV replication (viral RNA, viral antigen, virus yield)” value is given as “completely inhibit” in data set [7] (76 μg/ml added at 2, 4, 6 and 8 hours post-infection); “did not completely inhibit” in data set [7] (added beyond 8 hours post infection). For the same compound, the “JEV antigen by immunofluorescence” value in data set [7] (SCH 16 added at 0, 2, 4, 6 and 8 hrs post infection) is reported as “undetectable”; in data set [7] (SCH 16 added at 10, 12 and 14 hours post infection), “positive for viral antigen”. Also, in data set [8], the “Inhibition of CPE” value is “showed inhibition of CPE”. The CC50 in data set [1] amounted to 76 mg/L (≈ 122 µM); in [5], 126 mg/L (≈ 202 µM). The IC50 in data set [2] (read-out: IC50, concentration inhibiting 50% of the plaques produced by JEV) was 16 mg/L; in data set [2] (setting [12]), 25 µM; in data set [3] (read-out: IC50, concentration inhibiting 50% of the plaques produced by WNV), 4 mg/L; in data set [3] (setting [13]), 6 µM. In addition, the “Therapeutic Index (TI), CC50/IC50, JEV” value in data set [2] (ratio of CC50 to IC50) came to 5. The Protection in data set [9] (200 mg/kg body weight oral twice daily) is 25%; in data set [9] (400 mg/kg body weight oral twice daily), 50%; in data set [9] (500 mg/kg body weight oral twice daily), “complete protection”; in [10] (mouse, in vivo), “no protection”. The Prevention of mortality in [9] (mouse, in vivo) was found to be 100%. The “Viral RNA in brain homogenate by RT-PCR” value in data set [9] (mouse, in vivo) is recorded as “viral RNA was present”. Further, the “Viral antigen in brain smears by immunofluorescent staining” value in data set [9] (mouse, in vivo) is given as “no viral antigen could be demonstrated”. Further, the “Virus isolation from brain tissue of surviving mice” value in [9] (mouse, in vivo) is recorded as “could not be isolated”. For the same compound, the “Therapeutic Index (TI), CC50/IC50, WNV” value in data set [3] (ratio of CC50 to IC50) worked out at 19. The compound also yielded a Day of death in data set [10] (mouse, in vivo) of 9 days. Further, in data set [10] (mouse, in vivo), the “Prolonged survival time between treated and untreated mice” value came out at 3 days. Besides, the “Day post-infection when symptoms started appearing” value in data set [10] (treated mice, intracerebral challenge, untreated sick by day 3) is 7 days. In data set [11] (JEV infected PS cells), the “Minimum contact period required to completely inhibit virus replication” value was determined as 8 h. The “Inhibition of virus replication (viral antigen, viral RNA, infectious virus yield)” value is recorded as “complete inhibition of virus replication” in data set [11] (SCH 16 in contact with infected cultures for more than 8 hours post-infection) and “no inhibition of virus replication” in data set [11] (SCH16 withdrawn at earlier time points). The “Antiviral activity against Den-2 plaque formation” value in [4] is listed as “No antiviral activity”.
